Results published in US9566282B2, “Methods for identifying and validating selective anti-cancer stem cell agents” (MCMASTER UNIVERSITY, priority 2011, dated 2017).

system: v1O4 and H9 cells; experiment: p53 staining of v1O4 and H9 cells; type: cell-based, human
Source text: Variant neoplastic stem cells (v1O4 cells) and normal H9 stem cells were fixed and stained for p53 expression following treatment with selective-activity compounds.

SMILES | activation of the p53 stress response (% cells positive for p53)
OCCN1CCN(CCCN2c3ccccc3Sc3ccc(C(F)(F)F)cc32)CC1 [fluphenazine] | little or no activation of the p53 stress response
OCCN1CCN(CCCN2c3ccccc3Sc3ccc(Cl)cc32)CC1 [perphenazine] | little or no activation of the p53 stress response
CN1CCN(CCCN2c3ccccc3Sc3ccc(Cl)cc32)CC1 [prochlorperazine] | little or no activation of the p53 stress response
CN1CCN(CCCN2c3ccccc3Sc3ccc(C(F)(F)F)cc32)CC1 [trifluoperazine] | little or no activation of the p53 stress response
CN(C)CCCN1c2ccccc2Sc2ccc(C(F)(F)F)cc21 [triflupromazine] | little or no activation of the p53 stress response
